The values below come from ChEMBL document CHEMBL3045072, “Anti-tyrosinase, antioxidant and antimicrobial activities of hydroxycinnamoylamides” (Med Chem Res, 2013).

In brackets after ≈: the same amount, converted by molar mass.

For data set [1], the system named is Radical scavenging activity. The data set can be described thus: Antioxidant activity assessed as DPPH radical scavenging activity at 3.6 mM after 20 min. It counts as functional.
For data set [2], the system named is Radical scavenging activity. Put plainly: Antioxidant activity assessed as DPPH radical scavenging activity at 3.6 mM after 10 min. It counts as functional. On the technique in general: DPPH is a stable violet radical that fades when it is reduced.
Data set [3] relates to Radical scavenging activity. The data set can be described thus: Antioxidant activity assessed as DPPH radical scavenging activity at 1.8 mM after 20 min. It counts as functional.
Data set [4] concerns Radical scavenging activity. The data set can be described thus: Antioxidant activity assessed as DPPH radical scavenging activity at 0.9 mM after 20 min. It counts as functional.
In data set [5] the test system is Radical scavenging activity. Put plainly: Antioxidant activity assessed as DPPH radical scavenging activity at 1.8 mM after 10 min. It counts as functional.
Data set [6] deals with Radical scavenging activity. The data set can be described thus: Antioxidant activity assessed as DPPH radical scavenging activity at 0.9 mM after 10 min. It counts as functional.
A short description of data set [7]: Inhibition of autoxidation of pure triacylglycerols of sunflower oil at 1 mM by iodometric analysis. It counts as toxicity. The settings on record: 1000 µM.
Data set [8] deals with Streptococcus pyogenes. The data set can be described thus: Antimicrobial activity against Streptococcus pyogenes 10535 assessed as growth inhibition after 24 hr by serial dilution method. The settings on record: Streptococcus pyogenes, 10535, 24 h. It counts as functional.
Data set [9] concerns Staphylococcus aureus. Put plainly: Antimicrobial activity against Staphylococcus aureus 209 assessed as growth inhibition after 24 hr by serial dilution method. It counts as functional. Particulars: Staphylococcus aureus, 209, 24 h; call rule not given here.

For the compound `COC(=O)[C@H](Cc1ccccc1)NC(=O)/C=C/c1ccccc1`, the Activity in [1] was 2.58%; in [2], 2.18%; in [3] it was 2.6%; in data set [4], 2.52%; in data set [5] it was 2.39%; in data set [6], 2%.

Take `COC(=O)[C@H](Cc1ccc(O)c(O)c1)NC(=O)/C=C/c1cc(OC)c(O)c(OC)c1`: in data set [7], the “inhibition (INH)” value is listed as “Active”. Moreover, the Activity in data set [1] was 82.8%; in [2] it was 80.9%; in [3], 45.8%; in [4], 25.4%; in data set [5], 43.9%; in [6], 23.8%.

By MIC is commonly meant the lowest concentration that inhibits growth of the organism. Turning to `COC(=O)[C@H](Cc1c[nH]c2ccccc12)NC(=O)/C=C/c1ccc(O)c(O)c1`, the MIC in data set [8] is 250 µg/mL (≈ 657 µM). Besides, in data set [7], the “inhibition (INH)” value is “Active”. Further, the Activity worked out at 87.9% in data set [1]; 80.1% in data set [2]; 50.4% in data set [3]; 28.7% in data set [4]; 44.6% in data set [5]; 27.1% in data set [6].

For `COC(=O)[C@H](Cc1ccc(O)c(O)c1)NC(=O)/C=C/c1ccc(O)c(OC)c1`, the MIC in data set [9] is 125 µg/mL (≈ 323 µM). Besides, the Activity worked out at 87% in data set [1]; 83.8% in data set [2]; 50.6% in data set [3]; 28.5% in data set [4]; 44.8% in data set [5]; 24.3% in data set [6].

On to `Cc1c(C)c2c(c(C)c1O)CCC(C)(CCCC(C)CCCC(C)CCCC(C)C)O2` (racemic), for which the Activity in data set [1] is 73.3%; in data set [2], 62.9%; in data set [3], 46.8%; in data set [4], 24.8%; in data set [5] it was 40.8%; in [6], 23.2%.

Turning to `CC(C)(C)OC(=O)[C@H](Cc1ccccc1)NC(=O)/C=C/c1ccc(O)cc1`, the Activity came to 2.92% in data set [1]; 2.46% in data set [2]; 2.23% in data set [3]; 2.3% in data set [4]; 1.89% in data set [5]; 1.97% in data set [6].

For the compound `NC[C@H]1O[C@H](O[C@H]2[C@H](O)[C@@H](O[C@H]3O[C@H](CO)[C@@H](O)[C@H](N)[C@H]3O)[C@H](N)C[C@@H]2N)[C@H](N)C[C@@H]1O` [TOBRAMYCIN], the results for the MIC in data set [8] and in data set [9] were 7.81 µg/mL (≈ 16.7 µM) and 15.6 µg/mL (≈ 33.4 µM), respectively.

As to `COc1cc(/C=C/C(=O)O)cc(OC)c1O` [SINAPINATE], the minimal inhibitory concentration (MIC) in data set [8] and in [9] was 125 µg/mL (≈ 558 µM) throughout. Moreover, the “inhibition (INH)” value in data set [7] is reported as “Active”. For the same compound, the Activity in data set [1] was 69.6%; in [2] it was 69%; in [3], 31.9%; in [4] it was 17.2%; in [5] it was 26.5%; in data set [6], 16.1%.

As for `COC(=O)[C@H](Cc1ccc(O)c(O)c1)NC(=O)/C=C/c1ccccc1` [N-CINNAMOYL-DOPA METHYL ESTER], the “inhibition (INH)” value in data set [7] is “Active”. Further, the Activity in data set [1] amounted to 88.1%; in data set [2], 85%; in data set [3], 48.4%; in data set [4] it was 26.6%; in data set [5], 45.5%; in [6] it was 24.4%.

Turning to `COC(=O)[C@H](Cc1ccccc1)NC(=O)/C=C/c1ccc(O)c(O)c1` [N-CAFFEOYL-PHENYLALANINE METHYL ESTER], the “inhibition (INH)” value in data set [7] is listed as “Active”. Also, the Activity in data set [1] is 90.5%; in data set [2], 90.3%; in data set [3], 54.6%; in data set [4] it was 29.7%; in [5] it was 53.5%; in [6], 28.8%.

As to `COC(=O)[C@H](Cc1ccc(O)cc1)NC(=O)/C=C/c1ccccc1`, the Activity came to 2.57% in [1]; 2.12% in data set [2]; 2.3% in data set [3]; 2.12% in [4]; 2.05% in data set [5]; 1.74% in [6].

`COC(=O)[C@H](Cc1c[nH]c2ccccc12)NC(=O)/C=C/c1cc(OC)c(O)c(OC)c1`: in [8], the MIC was 250 µg/mL (≈ 589 µM). The Activity in data set [1] came to 49.9%; in data set [2], 48.1%; in data set [3] it was 27.3%; in [4], 14.6%; in [5], 26%; in [6], 13.7%.

For `COc1cc(/C=C/C(=O)NCCc2c[nH]c3ccccc23)cc(OC)c1O`, the MIC in [8] amounted to 62.5 µg/mL (≈ 171 µM); in data set [9] it was 250 µg/mL (≈ 682 µM).

In the case of `COc1cc(/C=C/C(=O)NCCc2ccc(O)cc2)ccc1O` [N-TRANS-FERULOYL TYRAMINE], the minimum inhibitory concentration (MIC) in [8] was 125 µg/mL (≈ 399 µM); in data set [9], 62.5 µg/mL (≈ 199 µM).

Consider `COc1cc(/C=C/C(=O)NCCc2ccc(O)c(O)c2)ccc1O` [N-TRANS-FERULOYLDOPAMINE], for which the results for the minimal inhibitory concentration (MIC) in [8] and in data set [9] were 125 µg/mL (≈ 380 µM) and 62.5 µg/mL (≈ 190 µM), respectively.

On to `COC(=O)[C@H](Cc1ccc(O)cc1)NC(=O)/C=C/c1ccc(O)c(OC)c1`, for which the MIC in data set [9] was 15 µg/mL (≈ 40.4 µM). Besides, the Activity in data set [1] came out at 29.2%; in data set [2] it was 24.8%; in data set [3], 16.2%; in data set [4], 8.79%; in [5], 13.7%; in data set [6], 7.04%.

In the case of `O=C(/C=C/c1ccc(O)c(O)c1)NCCc1c[nH]c2ccccc12`, the MIC was determined as 62.5 µg/mL (≈ 194 µM) in [8] and 125 µg/mL (≈ 388 µM) in data set [9].

Take `COc1cc(/C=C/C(=O)N[C@@H](Cc2ccccc2)C(=O)OC(C)(C)C)ccc1O`: the Activity in data set [1] worked out at 36.9%; in data set [2], 30.4%; in data set [3], 23.6%; in data set [4], 13.5%; in data set [5] it was 19.5%; in [6] it was 10.9%.

`COC(=O)[C@H](Cc1ccc(O)c(O)c1)NC(=O)/C=C/c1ccc(O)c(O)c1` [N-CAFFEOYL-DOPA METHYL ESTER]: the “inhibition (INH)” value in data set [7] was “Active”. In addition, the Activity in [1] is 88.8%; in data set [2], 88.7%; in data set [3] it was 86%; in [4], 50.5%; in data set [5] it was 82.5%; in data set [6], 44.8%.

As for `COC(=O)[C@H](Cc1ccc(O)cc1)NC(=O)/C=C/c1ccc(O)c(O)c1`, the Activity in data set [1] turned out to be 90.2%; in [2] it was 89.6%; in data set [3] it was 52.5%; in [4] it was 28.7%; in data set [5], 51%; in data set [6], 27.4%.

Regarding `COC(=O)[C@H](Cc1c[nH]c2ccccc12)NC(=O)/C=C/c1ccccc1`, the Activity in [1] turned out to be 1.48%; in data set [2] it was 1.18%; in data set [3], 1.41%; in data set [4], 0.69%; in [5] it was 1.2%; in [6], 0.79%.

On to `O=C(O)/C=C/c1ccccc1` [CINNAMIC ACID], for which the “inhibition (INH)” value in data set [7] was “Not Active”. In addition, the Activity in data set [1] was 0.35%; in [2], 0.32%; in [3], 0.35%; in [4] it was 0.32%; in data set [5], 0.32%; in data set [6], 0.3%.

As for `COc1cc(/C=C/C(=O)NCCc2ccc(O)cc2)cc(OC)c1O` [TRANS-N-SINAPOYLTYRAMINE], the minimal inhibitory concentration (MIC) in [8] and in data set [9] was 62.5 µg/mL (≈ 182 µM) each time. In addition, the “inhibition (INH)” value in data set [7] is reported as “Active”.

For `COC(=O)[C@H](Cc1c[nH]c2ccccc12)NC(=O)/C=C/c1ccc(O)cc1`, the Activity came to 2.88% in data set [1]; 2.42% in data set [2]; 2.37% in data set [3]; 2.13% in data set [4]; 1.69% in data set [5]; 1.92% in [6].

In the case of `O=C(O)/C=C/c1ccc(O)c(O)c1` [CAFFEIC ACID], the minimal inhibitory concentration (MIC) in data set [8] and in data set [9] was 125 µg/mL (≈ 694 µM) throughout. Also, in data set [7], the “inhibition (INH)” value is “Active”. In addition, the Activity in data set [1] came to 91.8%; in [2], 88%; in [3], 64.3%; in data set [4] it was 34.1%; in data set [5], 62.1%; in data set [6], 33.5%.

As for `COc1cc(/C=C/C(=O)O)ccc1O` [FERULATE], the MIC in [8] and in data set [9] was 125 µg/mL (≈ 644 µM) throughout. Besides, the “inhibition (INH)” value in data set [7] is listed as “Active”. The Activity was found to be 44.3% in [1]; 36.7% in data set [2]; 25.1% in data set [3]; 13.8% in data set [4]; 21% in [5]; 12.6% in data set [6].

For `COC(=O)[C@H](Cc1c[nH]c2ccccc12)NC(=O)/C=C/c1ccc(O)c(OC)c1`, the Activity came out at 30.9% in [1]; 26.4% in [2]; 17.4% in data set [3]; 9.76% in [4]; 14.5% in data set [5]; 7.96% in [6].

Regarding `COC(=O)[C@H](Cc1ccc(O)cc1)NC(=O)/C=C/c1cc(OC)c(O)c(OC)c1`, the MIC in data set [8] was found to be 250 µg/mL (≈ 623 µM); in data set [9], 125 µg/mL (≈ 311 µM). The Activity was found to be 45.3% in data set [1]; 43% in data set [2]; 25% in data set [3]; 15.6% in data set [4]; 23.1% in [5]; 14.2% in data set [6].

For the compound `COc1cc(/C=C/C(=O)N[C@@H](Cc2ccccc2)C(=O)OC(C)(C)C)cc(OC)c1O`, the Activity is 50.6% in data set [1]; 46.8% in [2]; 28.2% in [3]; 16.7% in data set [4]; 25% in data set [5]; 13.7% in data set [6].

Turning to `O=c1c(O)c(-c2ccc(O)c(O)c2)oc2cc(O)cc(O)c12`, the Activity in [1] was determined as 78%; in [2], 76%; in data set [3], 58.4%; in data set [4] it was 45.2%; in data set [5], 46.7%; in [6], 40.4%.
